From patent US20040266885A1, “Wood preservative compositions” (priority 2001, published 2004)
Values joined by “and” are separate entries in the source; they are usually repeats but may differ in a detail not shown here. Equal entries are not always repeated. “Also recorded” adds a separate entry of the source. Where two headings read alike, the source gives them in different places.

Tested on: Coptotermes formosanus
Settings: for Surface Activity (termites on the surface of the soil) / Tunneling Activity / Visible Mortality / repellent effect on termites (surface activity data) / termite mortality by the end of the incubation period / toxic value, lower (concentration at which the wood is no longer sufficiently protected) / toxic value, upper (lowest concentration which protects the wood) / Mean Rating (termite attack) / Termite Attack Rating: ethanol carrier; for reduction in termite attack: concentrated solutions, followed by leaching; for termite mortality by the end of the incubation period: higher concentrations; for toxic value, lower (concentration at which the wood is no longer sufficiently protected) / toxic value, upper (lowest concentration which protects the wood): mean loading, leached; for toxic value, lower (concentration at which the wood is no longer sufficiently protected): solution concentration 5%; for toxic value, upper (lowest concentration which protects the wood): solution concentration 7%; for Mean Rating (termite attack): mean of 4 specimens; for Mean Rating (termite attack) / Termite Attack Rating: 4 weeks sand culture; for Termite Attack Rating: single specimen
Description: A laboratory test was undertaken to determine the toxic values of novel actives against termites. The active materials used were TBBA, TBBE [4,4′-ethylidenebis(2,6-dibromophenol)] [CAS RN=12639-25-3] (Sample Number 1392-82-03); TBBZ [4,4′-cyclohexylidene(2,6-dibromophenol)] [CAS RN=53350-96-2] (Sample Number 1392-72-03) and TBA, 2,2′,6-tribromo-4,4′-isopropylidenediphenol, CAS 6386-73-8 (Sample Number 1392-75-03).
The test was undertaken largely according to the strictures laid down in ASTM 3345-74 (the American standard laboratory test to assess the termite resistant properties of wood to wood destroying termites). The test method allows for the exposure of treated buried wood blocks to termites (Reticulitermes or Coptotermes spp.) over a period of 4 weeks. Efficacy of the product is determined by the extent of termite damage to the treated timber specimens through a scoring system. The test was slightly modified from the standard ASTM test by reducing the number of replicate wood specimens from 5 to 4.
Score 1: Attempted attack
The toxic values of the preservative product (in kg/m^3 of wood) fall between two values as follows:
1) The lowest concentration which protects the wood (i.e. the concentration at which none of the test specimens show a degree of attack greater than 1).
The termites employed were Coptotermes formosanus.
All wood bock specimens were of Southern Yellow Pine sapwood (Pinus spp.) with dimensions of 25.4×25.4×6.4 mm in accordance with ASTM D3345-74. All blocks were vacuum impregnated with the relevant solutions in accordance with ASTM D3345-74. Distribution of blocks in the test was as follows:
The test specimens were conditioned and subjected to a leaching schedule (after vacuum impregnation) as stipulated in ASTM D1413-76 (as recommended in ASTM D3345-74). All test specimens were then air dried for two weeks to constant weight.
The specimens were each positioned at the base of a 500 ml polyethylene culture jar (numbered according to each test specimen) and covered with 200 g of sand (pre-washed, sterilised and air conditioned in the laboratory) to which was added 25 g of de-ionised water. A further two containers containing watered sand but no timber were also prepared. All the jars were sealed (lids pre-pierced and covered with stainless steel mesh for aeration).
Two days after specimen placement, 200 termites were added to each culture jar (90% workers and 10% soldiers) and the jars re-sealed. The jars were incubated at a mean temperature and relative humidity of 27.5° C. and 75-90% for 4 weeks. The containers were provided with an artificial lighting regime of 10 hours light and 14 hours darkness.
After 1 week and 4 weeks each container was examined to determine termite mortality and normal tunneling behaviour patterns as follows:
Is there tunneling present: YES/NO
Are there any termites on the surface of the soil: YES/NO (if yes how many, i.e. 1-25% of pop, 26-50% of pop, 51-100% of pop.)
Are any dead termites visible: YES/NO (if yes how many, 1-33%, 34-66%, 67-100%)
After 4 weeks the test specimens were removed and cleaned of debris. Each block was examined and visually rated for termite damage using the scoring system detailed above.
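Throughout, for Termite Attack Rating: score 0 no attack 2 slight 3 average 4 strong attack.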

CC(C)(c1ccc(O)c(Br)c1)c1cc(Br)c(O)c(Br)c1 [TBA, 2,2′,6-tribromo-4,4′-isopropylidenediphenol]
Surface Activity (termites on the surface of the soil) (1 week, solution conc. 1%): No/No
Tunneling Activity (1 week, solution conc. 1%): Yes/Yes
Visible Mortality (1 week, solution conc. 1%): No/No
Surface Activity (termites on the surface of the soil) (1 week, solution conc. 3%): No/No
Tunneling Activity (1 week, solution conc. 3%): Yes/Yes
Visible Mortality (1 week, solution conc. 3%): No
Surface Activity (termites on the surface of the soil) (1 week, solution conc. 5%): No/No
Tunneling Activity (1 week, solution conc. 5%): Yes/Yes
Visible Mortality (1 week, solution conc. 5%): No
Surface Activity (termites on the surface of the soil) (1 week, solution conc. 7%): No/No
Tunneling Activity (1 week, solution conc. 7%): Yes/Yes
Visible Mortality (1 week, solution conc. 7%): No
Surface Activity (termites on the surface of the soil) (1 week, solution conc. 10%): No/No
Tunneling Activity (1 week, solution conc. 10%): Yes/Yes
Visible Mortality (1 week, solution conc. 10%): No
Surface Activity (termites on the surface of the soil) (4 weeks, solution conc. 1%): No/No
Tunneling Activity (4 weeks, solution conc. 1%): Yes/Yes
Visible Mortality (4 weeks, solution conc. 1%): No/No
Surface Activity (termites on the surface of the soil) (4 weeks, solution conc. 3%): No/No
Tunneling Activity (4 weeks, solution conc. 3%): Yes/Yes
Visible Mortality (4 weeks, solution conc. 3%): 1-33 % (of pop.)
Surface Activity (termites on the surface of the soil) (4 weeks, solution conc. 5%): No/No
Tunneling Activity (4 weeks, solution conc. 5%): Yes/Yes
Visible Mortality (4 weeks, solution conc. 5%): 34-66 % (of pop.)
Surface Activity (termites on the surface of the soil) (4 weeks, solution conc. 7%): No/No
Tunneling Activity (4 weeks, solution conc. 7%): Yes/Yes
Visible Mortality (4 weeks, solution conc. 7%): 34-66 % (of pop.)
Surface Activity (termites on the surface of the soil) (4 weeks, solution conc. 10%): No/No
Tunneling Activity (4 weeks, solution conc. 10%): Yes/Yes
Visible Mortality (4 weeks, solution conc. 10%): 34-66 % (of pop.)
reduction in termite attack: a significant reduction in termite attack
repellent effect on termites (surface activity data): no repellent effect
termite mortality by the end of the incubation period: 34-66%
toxic value, lower (concentration at which the wood is no longer sufficiently protected) (4 weeks): 30.17 kg/m^3
toxic value, upper (lowest concentration which protects the wood) (4 weeks): 41.22 kg/m^3
Mean Rating (termite attack) (solution conc. 1%): 3.00
Termite Attack Rating (solution conc. 1%): 3 and 2 and 4
Mean Rating (termite attack) (solution conc. 3%): 1.75
Termite Attack Rating (solution conc. 3%): 2 and 1
Mean Rating (termite attack) (solution conc. 5%): 1.75
Termite Attack Rating (solution conc. 5%): 2 and 1
Mean Rating (termite attack) (solution conc. 7%): 1.00
Termite Attack Rating (solution conc. 7%): 1
Mean Rating (termite attack) (solution conc. 10%): 1.00
Termite Attack Rating (solution conc. 10%): 1

CC(c1cc(Br)c(O)c(Br)c1)c1cc(Br)c(O)c(Br)c1 [TBBE, 4,4′-ethylidenebis(2,6-dibromophenol)]
Surface Activity (termites on the surface of the soil) (1 week, solution conc. 1%): No/No
Tunneling Activity (1 week, solution conc. 1%): Yes/Yes
Visible Mortality (1 week, solution conc. 1%): No/No
Surface Activity (termites on the surface of the soil) (1 week, solution conc. 3%): No/No
Tunneling Activity (1 week, solution conc. 3%): Yes/Yes
Visible Mortality (1 week, solution conc. 3%): No
Surface Activity (termites on the surface of the soil) (1 week, solution conc. 5%): No/No
Tunneling Activity (1 week, solution conc. 5%): Yes/Yes
Visible Mortality (1 week, solution conc. 5%): No
Surface Activity (termites on the surface of the soil) (1 week, solution conc. 7%): 1-25%/1-25% (of % (of pop.)
Tunneling Activity (1 week, solution conc. 7%): Yes/Yes
Surface Activity (termites on the surface of the soil) (1 week, solution conc. 10%): 1-25%/1-25% (of % (of pop.)
Tunneling Activity (1 week, solution conc. 10%): Yes/Yes
Visible Mortality (1 week, solution conc. 10%): No
Surface Activity (termites on the surface of the soil) (4 weeks, solution conc. 1%): No/No
Tunneling Activity (4 weeks, solution conc. 1%): Yes/Yes
Visible Mortality (4 weeks, solution conc. 1%): No/No
Surface Activity (termites on the surface of the soil) (4 weeks, solution conc. 3%): No/No
Tunneling Activity (4 weeks, solution conc. 3%): Yes/Yes
Visible Mortality (4 weeks, solution conc. 3%): 1-33 % (of pop.)
Surface Activity (termites on the surface of the soil) (4 weeks, solution conc. 5%): No/No
Tunneling Activity (4 weeks, solution conc. 5%): Yes/Yes
Surface Activity (termites on the surface of the soil) (4 weeks, solution conc. 7%): 1-25%/1-25% (of % (of pop.)
Tunneling Activity (4 weeks, solution conc. 7%): Yes/Yes
Visible Mortality (4 weeks, solution conc. 7%): 67-100 % (of pop.)
Surface Activity (termites on the surface of the soil) (4 weeks, solution conc. 10%): 1-25%/1-25% (of % (of pop.)
Tunneling Activity (4 weeks, solution conc. 10%): Yes/Yes
Visible Mortality (4 weeks, solution conc. 10%): 67-100 % (of pop.)
reduction in termite attack: a significant reduction in termite attack
repellent effect on termites (surface activity data): a degree of termite repellency; also recorded: a repellent effect at certain stages of the incubation period; also recorded: a repellent effect early in the incubation period at higher concentrations
termite mortality by the end of the incubation period: significant termite mortality
toxic value, lower (concentration at which the wood is no longer sufficiently protected) (4 weeks): 28.53 kg/m^3
toxic value, upper (lowest concentration which protects the wood) (4 weeks): 35.93 kg/m^3
Mean Rating (termite attack) (solution conc. 1%): 3.00
Termite Attack Rating (solution conc. 1%): 3
Mean Rating (termite attack) (solution conc. 3%): 2.00
Termite Attack Rating (solution conc. 3%): 2 and 3 and 1
Mean Rating (termite attack) (solution conc. 5%): 1.50
Termite Attack Rating (solution conc. 5%): 2 and 1
Mean Rating (termite attack) (solution conc. 7%): 1.00
Termite Attack Rating (solution conc. 7%): 1
Mean Rating (termite attack) (solution conc. 10%): 1.25
Termite Attack Rating (solution conc. 10%): 1 and 2

Oc1c(Br)cc(C2(c3cc(Br)c(O)c(Br)c3)CCCCC2)cc1Br [TBBZ, 4,4′-cyclohexylidene(2,6-dibromophenol)]
Surface Activity (termites on the surface of the soil) (1 week, solution conc. 1%): No/No
Tunneling Activity (1 week, solution conc. 1%): Yes/Yes
Visible Mortality (1 week, solution conc. 1%): No/No
Surface Activity (termites on the surface of the soil) (1 week, solution conc. 3%): No/No
Tunneling Activity (1 week, solution conc. 3%): Yes/Yes
Visible Mortality (1 week, solution conc. 3%): No
Surface Activity (termites on the surface of the soil) (1 week, solution conc. 5%): No/No
Tunneling Activity (1 week, solution conc. 5%): Yes/Yes
Visible Mortality (1 week, solution conc. 5%): No
Surface Activity (termites on the surface of the soil) (1 week, solution conc. 7%): 1-25 % (of pop.)
Tunneling Activity (1 week, solution conc. 7%): Yes/Yes
Visible Mortality (1 week, solution conc. 7%): No
Surface Activity (termites on the surface of the soil) (1 week, solution conc. 10%): 1-25 % (of pop.)
Tunneling Activity (1 week, solution conc. 10%): Yes/Yes
Visible Mortality (1 week, solution conc. 10%): No
Surface Activity (termites on the surface of the soil) (4 weeks, solution conc. 1%): No/No
Tunneling Activity (4 weeks, solution conc. 1%): Yes/Yes
Visible Mortality (4 weeks, solution conc. 1%): No/No
Surface Activity (termites on the surface of the soil) (4 weeks, solution conc. 3%): No/No
Tunneling Activity (4 weeks, solution conc. 3%): Yes/Yes
Visible Mortality (4 weeks, solution conc. 3%): 1-33 % (of pop.)
Surface Activity (termites on the surface of the soil) (4 weeks, solution conc. 5%): No/No
Tunneling Activity (4 weeks, solution conc. 5%): Yes/Yes
Visible Mortality (4 weeks, solution conc. 5%): 34-66 % (of pop.)
Surface Activity (termites on the surface of the soil) (4 weeks, solution conc. 7%): No
Tunneling Activity (4 weeks, solution conc. 7%): Yes/Yes
Visible Mortality (4 weeks, solution conc. 7%): 34-66 % (of pop.)
Surface Activity (termites on the surface of the soil) (4 weeks, solution conc. 10%): No
Tunneling Activity (4 weeks, solution conc. 10%): Yes/Yes
Visible Mortality (4 weeks, solution conc. 10%): 67-100 % (of pop.)
reduction in termite attack: a significant reduction in termite attack; also recorded: the higher concentrations do reduce termite attack
repellent effect on termites (surface activity data): a degree of termite repellency
Mean Rating (termite attack) (solution conc. 1%): 2.50
Termite Attack Rating (solution conc. 1%): 4 and 2
Mean Rating (termite attack) (solution conc. 3%): 1.50
Termite Attack Rating (solution conc. 3%): 2 and 1
Mean Rating (termite attack) (solution conc. 5%): 1.25
Termite Attack Rating (solution conc. 5%): 1 and 2
Mean Rating (termite attack) (solution conc. 7%): 1.25
Termite Attack Rating (solution conc. 7%): 1 and 2
Mean Rating (termite attack) (solution conc. 10%): 1.25
Termite Attack Rating (solution conc. 10%): 1 and 2
